This note sets out measurements from US20150374709A1, “TETRA-SUBSTITUTED NDGA DERIVATIVES VIA ETHER BONDS AND CARBAMATE BONDS AND THEIR SYNTHESIS AND PHARMACEUTICAL USE” (ERIMOS PHARMACEUTICALS LLC, priority 2006, published 2015).

The IC50 is the concentration that inhibits the measured activity by half.

The subject of one assay is Breast Cancer cell lines. Put plainly: NCI DTP human tumor cell line screen, breast cancer panel. In kind it is cell-based. The note with it: Breast Cancer (6 cell lines). An excerpt: (§1) The United States National Cancer Institute (NCI) provides a developmental therapeutics program (DTP) (http://dtp.nci.nih.gov/branches/btb/ivelsp.html) to screen submitted substances in support of cancer drug discovery. The In Vitro Cell Line Screening Project (IVCLSP) is a dedicated service providing direct support to the DTP anticancer drug discovery program and is designed to screen up to 3,000 compounds per year for potential anticancer activity. The operation of this screen utilizes 60 different human tumor cell lines, representing leukemia, melanoma and cancers of the lung, colon, brain, ovary, breast, prostate, and kidney. The aim is to prioritize for farther evaluation, synthetic compounds or natural product samples showing selective growth inhibition or cell killing of particular tumor cell lines. This screen is unique in that the complexity of a 60 cell line dose response produced by a given compound results in a biological response pattern which can be utilized in pattern recognition algorithms (COMPARE program. See: http://dtp.nci.nih.gov/docs/compare/compare.html). Using these algorithms, it is possible to assign a putative mechanism of action to a test compound, or to determine that the response pattern is unique and not similar to that of any of the standard prototype compounds included in the NCI database. […]

For the next assay, the system named is CNS cell lines. In words: NCI DTP human tumor cell line screen, CNS panel. It is filed as cell-based. As to conditions: CNS (6 cell lines).
Text: as §1

A further assay relates to Renal Cancer cell lines. In words: NCI DTP human tumor cell line screen, renal cancer panel. As to conditions: Renal Cancer (6 cell lines). In kind it is cell-based.
Text: as §1

The next assay relates to COS-7 cells. In words: MTT cytotoxicity assay in COS-7 cells (run with SEAP). In kind it is cell-based, green monkey. As to conditions: Chlorocebus sabaeus, COS-7 test cells of the SEAP assay. (Formazan colour is commonly taken as a measure of viable cells.)
The subject of another assay is A549 (lung carcinoma). In words: MTS cell viability assay, A549. As to conditions: Homo sapiens, A549; MTS assay; read-out: A549 IC50. It is filed as cell-based.
The subject of another assay is NSCLC cell lines. Put plainly: NCI DTP human tumor cell line screen, NSCLC panel. It is filed as cell-based. As to conditions: NSCLC (8 cell lines).
Text: as §1

Method for COS-7 cells: The MTT assay is a colorimetric method for determining the number of viable cells. Metabolically active cells turn the MIT reagent, (3-(4,5-dimethylthiazol-2-yl)-2,5-diphenyltetrazolium bromide, into purple-colored formazan crystals that are solubilized in dimethyl sulfoxide (DMSO). The MTT reagent is added to MTT (colorless) media. The media is added to the cells and they are incubated for 4 hours. DMSO is added to the cells and mixed. The colored solutions are then read at 540 nm and corrected at 630 nm. The IC50 is estimated by graphing the gathered data.
The cells are analyzed by the MTT assay to compare cytotoxicity to SEAP inhibition. The goal is for the drug to inhibit SEAP without being too toxic.
The MTT assay measures cellular-proliferation and is used to verify that the levels of SEAP activity are not solely due to cytotoxicity. These assays was used in screening for potential drug compound leads as antiviral agents, and particularly, anti-HIV candidates.

Take `C[C@H](Cc1ccc(OCCCN2CCCCC2)c(OCCCN2CCCCC2)c1)[C@@H](C)Cc1ccc(OCCCN2CCCCC2)c(OCCCN2CCCCC2)c1` [Compound A, 1,4-bis{3,4-bis[3-(piperidin-1-yl)propoxy]phenyl}-2,3-dimethyl-(2R,3S)-butane]: the “Mean Growth Percent at 10 μM” value in the assay on Breast Cancer cell lines is on record as −67.95%; in the assay with CNS cell lines it was −93.97%; in the assay on Renal Cancer cell lines, −95.54%; in the assay on NSCLC cell lines it was −90.92%. The concentration for half-maximal inhibition (IC50) in the assay on COS-7 cells is 700 to 900 nM; with A549 (lung carcinoma) it was 800 to 900 nM.
